In assay [1] the target is T1, FXYD2-gamma-a regulatory subunit expressed by CAPAN-2 cells (Homo sapiens, UniProt P54710).
T1 construct: the FXYD2-gamma-a regulatory subunit expressed by CAPAN-2 cells; endogenous in cells; host or cells: CAPAN-2 cells (PANC1 cells as comparison)
Kind of assay: Immunocytochemistry on CAPAN2 and PANC1 cells. It is filed as cell-based. Conditions: CAPAN2 cells versus PANC1 cells. The procedure: (§1) The specificity of P88, P89, P90 and a polyclonal antibody against the N-terminal sequence of FXYD2-gamma-a protein to the FXYD2-gamma-a regulatory subunit expressed by CAPAN-2 cells was checked by immunocytochemistry and immunofluorescence tests.
Immunocytochemistry tests were performed using the biotinylated peptides. An anti-biotine antibody was used and was recognized by a secondary antibody coupled to the peroxidase. The polyclonal antibody against the N-terminal sequence of FXYD2-gamma-a protein to the FXYD2-gamma-a was detected using a secondary biotinylated antibody that fixes a complex containing streptavidin, biotin and peroxidase. The latter gives a brown color in the presence of 3,3′-diaminobenzidine (DAB).

For another assay, the target named is FXYD2-gamma-a subunit (Homo sapiens, UniProt P54710). The experiment in a line: Dissociation constant (Kd) determination of phage display clone and synthetized peptides. Conditions: binding to FXYD2-gamma-a subunit. The source says: Commercially available peptide libraries were screened and peptides binding the FXYD2-gamma-a subunit were retained for further analysis. The FXYD2-gamma-a is a regulating subunit of the Na—K-ATPase that contains 66 amino acids, from which 11 are specific to human beta-cells (Flamez D et al. DOI 10.1007/s00125-010-1714-z). Commercially available linear heptapeptide libraries were screened via M 13 phage display methodology. After 4 screening rounds, 42 clones were selected for further characterization: sequencing and dissociation constant (Kd) determination. […] The latter were synthetized either separately (called P89 and P90) or fused via a short sequence of the pill protein (called P88). All three synthetized peptides were further tested. […]
Chain of FXYD2-gamma-a subunit (P54710 whole entry, the tested form may be a part): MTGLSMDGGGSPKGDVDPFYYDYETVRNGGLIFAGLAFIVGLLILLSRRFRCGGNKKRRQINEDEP

The target in assay [2] is T1, FXYD2-gamma-a regulatory subunit expressed by CAPAN-2 cells. The experiment in a line: Immunofluorescence on CAPAN2 and PANC1 cells with ImageJ semi-quantitative analysis (RRFL). The assay is classed as cell-based.
Description: as §1
Each secondary antibody described above was coupled to a fluorophore such as fluorescein which gives a green color at a certain wavelength. DAPI (4′,6-diamidino-2-phenylindole) was also used in order to stain the cell nuclei in blue. This allowed us to compare the localization of the blue and the green coloration. […] Therefore, P88 interacts specifically with CAPAN2 cells and is thus specific to the FXYD2-gamma-a biomarker.
The images obtained by immunofluorescence test were analyzed using ImageJ software in order to semi-quantitatively evaluate the fluorescent labeling. The following equation was used to calculate the relative rate of fluorescent labeling (RRFL): RRFL=(SIsample/Ncells)/(SIblanc/Ncells) Wherein SI is the signal intensity, N is the number of cells and blanc is the negative control sample.
The percentage of RRFL obtained when P88 was used at two different concentrations (5 μM and 10 μM) was determined compared to the RRFL obtained when the polyclonal antibody against the N-terminal sequence of FXYD2-gamma-a was used (FIG. 3 B). The ratio between the RRFL measured in CAPAN2 cells and the RRFL measured in PANC1 cells was also determined (FIG. 3 C). […] The ratio CAPAN2/PANC1 confirmed the labeling specificity of P88 compared to the used polyclonal antibody.

Assay [3] has as its system human pancreatic Langerhans islets. Kind of assay: Immunohistochemistry on human pancreatic histological sections. The assay is classed as cell-based. The procedure:
(§2) A co-localization of peptide P88, insulin and glucagon was performed on human pancreatic histological sections using immunohistochemistry and immunofluorescence tests. Insulin is a hormone produced by the beta cells of Langerhans islets while glucagon is produced by the alpha cells of the same islets.
The marking is the same as the one obtained when the antibody anti-insulin was used (FIG. 4).
In other immunohistochemistry tests, the anti-FXYD2-gamma-a polyclonal antibody was used. […] Therefore, P88 is highly specific to the pancreatic beta cells FXYD2-gamma-a biomarker.

Assay [4] concerns human pancreatic beta cells. Kind of assay: Immunofluorescence co-localization on human pancreatic histological sections. It is filed as cell-based. The procedure: as §2
Immunofluorescence tests were performed on human pancreatic histological sections such as P88 was detected together with insulin or glucagon. In another test, insulin was detected together with the polyclonal antibody against the N-terminal sequence of FXYD2-gamma-a. Insulin (specific of beta cells) was detected with a primary anti-insulin antibody which was detected using a secondary antibody coupled to Texas Red. Glucagon was detected with a primary anti-glucagon antibody which was also detected using a secondary antibody coupled to Texas Red. The latter gives red color to the antigenic sites. Biotinylated P88 was detected using a primary antibody anti-biotin and a secondary antibody coupled to fluorescein. The polyclonal antibody against the N-terminal sequence of FXYD2-gamma-a was also detected using a secondary antibody coupled to fluorescein. Antigenic sites marked by fluorescein are visualized in green color. DAPI was also used in order to stain the cells nuclei in blue. Pictures obtained with each staining (red, green and blue) were superimposed.

In assay [5] the test system is CAPAN2 cells. Kind of assay: MRI of CAPAN2 cells labeled with contrast agents. It is filed as cell-based, human. As to conditions: for MRI labeling of CAPAN2 cells: 2×10^6 to 0.1×10^6 cells per 100 μl; for transverse relaxation rates of labeled CAPAN2 cells compared to USPIO-PEG: independent from the concentration of CAPAN2 cells. The procedure:
(§3) CAPAN2 cells were labeled with USPIO nanoparticles coupled to P88 or with carboxy silane coated iron oxide nanoparticles coupled to P88. USPIO-polyethylene glycol (PEG) were used as negative contrast agent. Labeled cells were visualized by MRI and the concentration of contrast agents bound to the cells was determined by iron dosage.
CAPAN2 cells were used with different concentrations ranging from 2×10^6 cell per 100 μl to 0.1×10^6 cells per 100 μl corresponding respectively to the beta cell concentration in healthy pancreas and in a pancreas with diabetes. […] The labeling was also clearly observed with the lowest CAPAN2 cell concentration.

For assay [6], the system named is CAPAN2 cells. Kind of assay: Iron dosage of CAPAN2 cells labeled with contrast agents. The assay is classed as cell-based, human. As to conditions: contrast agent 1 mM, 2 mM and 3 mM. The procedure:
as §3
This confirms the specificity of P88 to the pancreatic beta cells biomarker FXYD2-gamma-a and the efficacy of using the P88 coupled to a contrast agent in MRI.

A further assay has as its system human Langerhans islets. Kind of assay: MRI of human Langerhans islets labeled with contrast agents. The assay is classed as cell-based. As to conditions: for transverse relaxation rates of labeled human Langerhans islets compared to USPIO-PEG: independent from concentration and purity of islets. The procedure:
Contrast agents USPIO and carboxy silane coated iron oxide nanoparticles coupled to the peptide P88 were tested for their interaction with the human Langerhans islets and compared to the use of USPIO-PEG contrast agent.

Assay [7] has as its system beta cells of Langerhans islets. Kind of assay: Co-localization of contrast agent labeled Langerhans islets with insulin (anti-PEG antibody). The assay is classed as cell-based, human. Conditions: fluorescein, insulin Texas red. The procedure:
Co-localization tests were performed where antibodies anti-PEG were added to the Langrehans islets labeled with USPIO-P88 nanoparticles, the Langrehans islets labeled with carboxy silane coated iron oxide nanoparticles coupled to the peptide P88 and to the Langrehans islets labeled with USPIO-PEG. A secondary antibody that recognizes the anti-PEG antibody and coupled to the fluorescein was also used which created a green fluorescence.
Insulin was labeled with primary anti-insulin antibody and a secondary antibody coupled to Texas red which created a red fluorescence.

For assay [8], the target named is FXYD2-gamma-a regulatory subunit expressed by CAPAN-2 cells and human pancreatic beta cells (human) (UniProt P54710). The experiment in a line: immunofluorescence on CAPAN2 cells, ImageJ semi-quantitative analysis, P88 at 5 µM.
Chain of FXYD2-gamma-a regulatory subunit expressed by CAPAN-2 cells and human pancreatic beta cells (human) (P54710 whole entry): as the sequence (P54710 whole entry, the tested form may be a part) above
The target is the same in assay [9]. Kind of assay: immunofluorescence on CAPAN2 cells, ImageJ semi-quantitative analysis, P88 at 10 µM.
Assay [10] concerns the target FXYD2-gamma-a subunit (target of the phage display screening and Kd determination) (human) (UniProt P54710). The experiment in a line: synthetic peptide; method not stated.
The target is the same in assay [11]. Kind of assay: phage clone characterisation after M13 phage display screening; method not stated.

Where no end group is shown, it is not given here.

T1 sequence (P54710 whole entry): as the sequence (P54710 whole entry, the tested form may be a part) above
Chain of FXYD2-gamma-a subunit (target of the phage display screening and Kd determination) (human) (P54710 whole entry): as the sequence (P54710 whole entry, the tested form may be a part) above

With LPLSRHY [P89, LPLSRHY], the “specificity of interaction (brown DAB coloration)” value (from here on “specificity of interaction”) in assay [1] is “less specific compared to P88”.
As a reminder, the Kd is the constant that tells how readily two partners part at equilibrium. Lower therefore signals higher affinity. In turn, LPLSRHYGGGSVPFYSHSNTHHTSM [P88] yielded a Kd on FXYD2-gamma-a subunit of 1890 nM. Besides, in assay [1], the “specificity of interaction” value is reported as “more localized in the CAPAN2 cells”. Further, in [2] (CAPAN2 cells, 5 μM), the “RRFL higher than the RRFL produced by the anti-FXYD2-gamma-a polyclonal antibody” value was determined as 791%. Also, the “RRFL higher than the RRFL produced by the anti-FXYD2-gamma-a polyclonal antibody” value in assay [2] (CAPAN2 cells, 10 μM) was determined as 945%. Also, in [2] (CAPAN2 cells, DAPI nuclear stain), the “green fluorescence pattern in CAPAN 2 cells” value is given as “correspondent to the blue fluorescent pattern of DAPI”. Also, in assay [2] (PANC1 cells), the “green fluorescence in PANC1 cells” value is given as “few green fluorescent spots”. Moreover, the “marking of pancreatic Langerhans islets” value in [3] is listed as “high specific marking”. In assay [4], the “co-localization with glucagon (anti-glucagon antibody)” value is given as “did not co-localize” and the “co-localization with insulin (anti-insulin antibody)” value is “perfect co-localization”.
Regarding NTHHTSM [P90], the “dissociation constant (Kd)” value on FXYD2-gamma-a subunit is given as “could not be determined”. Also, the “specificity of interaction” value in assay [1] is given as “less specific compared to P88”.
As to “USPIO-P88: USPIO nanoparticles coupled to P88, MRI contrast agent (LPLSRHYGGGSVPFYSHSNTHHTSM; also: coupled to USPIO nanoparticles, site not given here)”, in the assay with CAPAN2 cells [5], the “MRI labeling of CAPAN2 cells” value was “clear labeling” and the “transverse relaxation rates of labeled CAPAN2 cells compared to USPIO-PEG” value was “higher”. Further, the “amount of iron captured by the CAPAN2 cells compared to USPIO-PEG” value with CAPAN2 cells [6] is recorded as “always higher”. Also, in the assay with human Langerhans islets (also at low concentration and in non-pure islet samples), the “MRI labeling of human Langerhans islets compared to USPIO-PEG” value was “clear difference”. In addition, in the assay on human Langerhans islets, the “transverse relaxation rates of labeled human Langerhans islets compared to USPIO-PEG” value is “higher”. The “co-localization of labeled Langerhans islets with the red fluorescence of insulin” value in assay [7] was “perfectly co-localized”.
As for “silane coated iron oxide nanoparticles-P88: carboxy silane coated iron oxide nanoparticles coupled to P88 (LPLSRHYGGGSVPFYSHSNTHHTSM; also: coupled to carboxy silane coated iron oxide nanoparticles, site not given here)”, in the assay with CAPAN2 cells [5], the “MRI labeling of CAPAN2 cells” value is listed as “clear labeling” and the “transverse relaxation rates of labeled CAPAN2 cells compared to USPIO-PEG” value is listed as “higher”. For the same molecule, the “amount of iron captured by the CAPAN2 cells compared to USPIO-PEG” value with CAPAN2 cells [6] is reported as “always higher”. Besides, the “transverse relaxation rates of labeled human Langerhans islets compared to USPIO-PEG” value in the assay on human Langerhans islets is given as “higher”. Besides, in assay [7], the “co-localization of labeled Langerhans islets with the red fluorescence of insulin” value was “perfectly co-localized”.

B1: P88 (peptide)
peptide: LPLSRHYGGGSVPFYSHSNTHHTSM
modifications: also: biotinylated in ICC/IHC/IF tests, site not given here
For the molecule B1, the relative rate of fluorescent labeling (RRFL) in CAPAN2 cells against the anti-FXYD2-gamma-a polyclonal antibody worked out at 791 % higher in assay [8] and 945 % higher in assay [9].

B2: P89 (peptide)
peptide: LPLSRHY
modifications: also: biotinylated in ICC tests, site not given here
Turning to B2, the Kd in assay [10] stood at 109000 nM.

B3: selected M13 phage clone carrying 2 peptides (peptide)
peptide 1: LPLSRHY
peptide 2: NTHHTSM
In assay [11], B3 displayed a Kd of 9.3 nM.
